From US7351294B2, “Surface cleaner” (Reckitt Benckiser (UK) Limited, priority 1999, dated 2008)

Assays:
[1] = cited from earlier work
[2] = Activity test: decolourisation of target dye gentian violet by sensitised TiO2 sol on an overhead projector, followed by UV/Visible spectrum
Description: A mixture of TiO2 sol (1 ml, 1 g/L) and tris(2,2′-dipyridyl4,4′-dicarboxylate)ruthenium(II)(dichloride) (4 ml, c=3.4×10^−5M) was stirred for about 1 minute using a rotamixer. The pH was recorded then the target dye gentian violet (GV dissolved in 20% ethanol solution, 0.05 ml or 0.08 ml, 0.03 wt/v %) was added and the mixture was stirred again. The initial colour of the sensitised TiO2 sol was yellow. Addition of gentian violet produced a purple colour at pH 3 and higher. A UV/Visible spectrum was taken at this stage. The vial containing the mixture was placed onto an overhead projector (2 cm height from the glass, in order to reduce heat). A UV/Visible spectrum was used to observe the colour change over a period of time at lamda max of the Target dye (Gentian violet or crystal violet)=588 nm in the white light spectrum. (OHP used: Model Ensign. Lamp:24V-250 W-3860 lux)
In order to get quantitative data a UV/Visible spectrum was taken at different times. […]

[3] = acid conditions (pH 3); cited from earlier work

Molecule | Sensitising properties ([1]; pH 7 compared with lower pH) | Sensitising agent for charge injection into titania ([1]; acid pH, compared to tris(2,2′-bipridyl)ruthenium (II) dichloride) | Decolourisation on repeated addition of gentian violet (0.08 ml) ([2]; Example 19, with TiO2 sol (5 ml, 10 g/L), slower rate than on the first addition) | Activity with other light sources versus overhead projector ([2]; with TiO2 sol, daylight bulbs 40 W and 100 W, tungsten filament 35 W and 100 W, fluorescent tube 8 W) | Activity in sensitised photocatalytic oxidation of herbicides [3]
[Cl-].[Cl-].[Ru+2].c1ccc(-c2ccccn2)nc1.c1ccc(-c2ccccn2)nc1.c1ccc(-c2ccccn2)nc1 [tris(2,2′-bipridyl)ruthenium (II) dichloride, reference compound] | improve |  |  |  | 
tris(2,2′-bipyridyl-4,4′-dicarboxylate)ruthenium (II) dichloride |  | superior | still decolourising on the third addition | still works with all light sources tried albeit much slower | active
